Assay results reported in patent US4472383A, “Peptide derivatives, their production and use” (Takeda Chemical Industries, Ltd., priority 1982, dated 1984).

Tested on: Hypertensive Activity of Angiotensin I
Assay: Effect against hypertensive activity of angiotensin I in anesthetized-prepared rats (oral administration)
Format: in vivo, Male rats (Sprague-Dawley)
Conditions: rat, 13.8 μM/kg orally, angiotensin I 300 ng/kg i.v., corrected for angiotensin II response; for Percent Inhibition (%) against Hypertensive Reaction by Angiotensin I After 20 min.: 20 min after administration; for Percent Inhibition (%) against Hypertensive Reaction by Angiotensin I After 60 min.: 60 min after administration; for Percent Inhibition (%) against Hypertensive Reaction by Angiotensin I After 120 min.: 120 min after administration
Protocol: Effect of Present Compounds against Hypertensive Activity of Angiotensin I Male rats (Sprague-Dawley) weighing 250 g to 350 g which were fed under free access to drinking water and feeds were used as experimental animals. The rats were anesthetized with intraperitoneal administration of pentobarbital sodium (50 mg/kg) on the day before the test day and a polyethylene tube was inserted into each of the femoral artery for measurement of blood pressure and the femoral vein for injection of angiotensin I and II, and then the tubes were fixed. […] Then, 13.8 μM/kg of the compound of this invention was administered orally as an aqueous solution or an aqueous gum arabic suspension, and 20, 60 and 120 minutes after the administration, angiotensin I and II were injected repeatedly to trace hypertensive reactions. In calculating the percent inhibition to the hypertensive activity of angiotensin I, the percent inhibitory value was corrected based on the variation with time in the hypertensive reaction by angiotensin II.

SMILES	Percent Inhibition (%) against Hypertensive Reaction by Angiotensin I After 20 min. [%]	Percent Inhibition (%) against Hypertensive Reaction by Angiotensin I After 60 min. [%]	Percent Inhibition (%) against Hypertensive Reaction by Angiotensin I After 120 min. [%]
Br.CCOC(=O)[C@H](CCc1ccccc1)N[C@@H](C)C(=O)N(CC(=O)N[C@@H](Cc1ccccc1)C(=O)O)C1Cc2ccccc2C1 [Example 3, N-[1(S)-ethoxycarbonyl-3-phenylpropyl]-L-alanyl-N-(2-indanyl)glycyl-L-phenylalanine hydrobromide]	67	73	77
CCCCOC(=O)[C@H](CCc1ccccc1)N[C@@H](C)C(=O)N(CC(=O)N[C@@H](Cc1ccccc1)C(=O)O)C1CCCC1.Cl [Example 6, N-[1(S)-butoxycarbonyl-3-phenylpropyl]-L-alanyl-N-cyclopentylglycyl-L-phenylalanine hydrochloride]	72	84	72
